According to patent publication US7713970B2, “Substituted cyclic urea derivatives” (FMC Corporation, priority 2004, dated 2010):

Test system: tobacco budworm (Heliothis virescens [Fabricius])
Assay: surface-treated diet test against tobacco budworm
Assay type: in vivo
Conditions: 0.25 millimolar candidate insecticide on the surface of the diet, second instar larvae, five-day exposure; for Percent Mortality: compared to total number of insects infested; for Percent Growth Inhibition: inhibition of insect weight relative to untreated controls
Procedure: Candidate insecticides were evaluated for activity against the tobacco budworm (Heliothis virescens [Fabricius]) in a surface-treated diet test.
In this test one mL of molten (65-70° C.) wheat germ-based artificial diet was pipetted into each well of a four by six (24 well) multi-well plate (ID# 430345-15.5 mm dia.×17.6 mm deep; Corning Costar Corp., One Alewife Center, Cambridge, Mass. 02140). The diet was allowed to cool to ambient temperature before treatment with candidate insecticide.
For a determination of insecticidal activity, solutions of the candidate insecticides were prepared for testing using a Packard 204DT Multiprobe® Robotic System (Packard Instrument Company, 800 Research Parkway, Meriden, Conn. 06450), in which the robot first diluted a standard 50 millimolar DMSO solution of candidate insecticide with a 1:1 water/acetone solution (V/V) in a ratio of 1:7 stock solution to water/acetone. The robot subsequently pipetted 40 microliters of the so-prepared solution onto the surface of the diet in each of three wells in the 24 multi-well plate. The process was repeated with solutions of seven other candidate insecticides. Once treated, the contents of the multi-well plate were allowed to dry, leaving 0.25 millimoles of candidate insecticide on the surface of the diet, or a concentration of 0.25 millimolar. Appropriate untreated controls containing only DMSO on the diet surface were also included in this test.
For evaluations of the insecticidal activity of a candidate insecticide at varying rates of application, the test was established as described above using sub-multiples of the standard 50 millimolar DMSO solution of candidate insecticide. For example, the standard 50 millimolar solution was diluted by the robot with DMSO to give 5, 0.5, 0.05, 0.005, 0.0005 millimolar, or more dilute solutions of the candidate insecticide. In these evaluations there were six replicates of each rate of application placed on the surface of the diet in the 24 multi-well plate, for a total of four rates of application of candidate insecticide in each plate.
In each well of the test plate was placed one second instar tobacco budworm larvea, each weighing approximately five milligrams. After the larvae were placed in each well, the plate was sealed with clear polyfilm adhesive tape. The tape over each well was perforated to ensure an adequate air supply. The plates were then held in a growth chamber at 25° C. and 60% relative humidity for five days (light 14 hours/day).
After the five-day exposure period insecticidal activity for each rate of application of candidate insecticide was assessed as percent inhibition of insect weight relative to the weight of insects from untreated controls, and percent mortality when compared to the total number of insects infested.

Row | Structure (SMILES) | Percent Mortality | Percent Growth Inhibition
1 | O=c1n(CCCCOc2c(Cl)cc(OCC=C(Cl)Cl)cc2Cl)cnn1-c1ccccc1 [Compound 94] | 100% | 100%
2 | CC(C)(C)c1ccc(-n2ncn(CCCCOc3c(Cl)cc(OCC=C(Cl)Cl)cc3Cl)c2=O)cc1 [Compound 83] | 100% | 100%
3 | O=c1n(CCCOc2c(Cl)cc(OCC=C(Cl)Cl)cc2Cl)nnn1-c1cccc(Cl)c1 [Compound 309] | 100% | 100%
4 | O=c1cnn(-c2cc(Cl)cc(Cl)c2)c(=O)n1CCCCOc1c(Cl)cc(OCC=C(Cl)Cl)cc1Cl [Compound 649] | 100% | 100%
5 | Cc1nn(-c2ccc(Cl)cc2Cl)c(=O)n1CCCCOc1c(Cl)cc(OCC=C(Cl)Cl)cc1Cl [Compound 118] | 100% | 100%
6 | O=c1n(CCCCOc2c(Cl)cc(OCC=C(Cl)Cl)cc2Cl)nnn1-c1ccc(C(F)(F)F)cc1 [Compound 293] | 100% | 100%
7 | O=c1n(CCCCOc2c(Cl)cc(OCC=C(Cl)Cl)cc2Cl)nnn1-c1ccccc1 [Compound 307] | 100% | 100%
8 | O=c1n(CCCCOc2c(Cl)cc(OCC=C(Cl)Cl)cc2Cl)cnn1-c1ccc(I)cc1 [Compound 90] | 100% | 100%
9 | N#Cc1ccc(-n2ncn(CCCCOc3c(Cl)cc(OCC=C(Cl)Cl)cc3Cl)c2=O)cc1 [Compound 89] | 100% | 100%
10 | O=c1n(CCCCOc2c(Cl)cc(OCC=C(Cl)Cl)cc2Cl)nnn1Cc1ccc(Cl)c(Cl)c1 [Compound 520] | 0% | 58%
11 | O=c1n(CCCOc2c(Cl)cc(OCC=C(Cl)Cl)cc2Cl)cnn1-c1ccc(C(F)(F)F)cc1 [Compound 106] | 100% | 100%
12 | O=c1n(CCCCOc2c(Cl)cc(OCC=C(Cl)Cl)cc2Cl)nnn1-c1ccc(Cl)cc1 [Compound 300] | 100% | 100%
13 | Cc1ccc(-n2ncn(CCCCOc3c(Cl)cc(OCC=C(Cl)Cl)cc3Cl)c2=O)cc1Cl [Compound 101] | 100% | 100%
14 | O=c1n(CCCOc2c(Cl)cc(OCC=C(Cl)Cl)cc2Cl)nnn1Cc1ccccc1Cl [Compound 523] | 100% | 100%
15 | O=c1n(CCCCOc2c(Cl)cc(OCC=C(Cl)Cl)cc2Cl)nnn1-c1cccc(C(F)(F)F)c1 [Compound 304] | 100% | 100%
16 | O=C1CN(CCCCOc2c(Cl)cc(OCC=C(Cl)Cl)cc2Cl)C(=O)N1c1ccc(Cl)cc1 [Compound 576] | 100% | 100%
17 | Cc1nn(-c2ccc(C(F)(F)F)cc2)c(=O)n1CCCCOc1c(Cl)cc(OCC=C(Cl)Cl)cc1Cl [Compound 131] | 100% | 100%
18 | Cc1nn(-c2ccc(S(=O)(=O)C(F)F)cc2)c(=O)n1CCCCOc1c(Cl)cc(OCC=C(Cl)Cl)cc1Cl [Compound 135] | 100% | 100%
19 | Cc1nn(-c2ccccc2F)c(=O)n1CCCCOc1c(Cl)cc(OCC=C(Cl)Cl)cc1Cl [Compound 114] | 100% | 100%
20 | O=c1n(CCCCOc2c(Cl)cc(OCC=C(Cl)Cl)cc2Cl)nnn1Cc1cccc(Cl)c1 [Compound 514] | 100% | 100%
21 | CC1(C)Cc2cccc(-n3nnn(CCCCOc4c(Cl)cc(OCC=C(Cl)Cl)cc4Cl)c3=O)c2O1 [Compound 335] | 100% | 100%
22 | COc1ccc(-n2ncc(=O)n(CCCCOc3c(Cl)cc(OCC=C(Cl)Cl)cc3Cl)c2=O)cc1 [Compound 655] | 100% | 100%
